Results from US7695969B2, “Methods for generating hypermutable microbes” (priority 2000, dated 2010).
Read-outs that look alike come from different tables or passages of the source.

B1: PMSR3: human PMS2 related gene product (SEQ ID NO: 24) (protein, listed as Homo sapiens)
chain: MCPWRPRLGRRCMVSPREADLGPQKDTRLDLPRSPARAPREQNSLGEVDRRGPREQTRAPATAAPPRPLGSRGAEAAEPQEGLSATVSACFQEQQEMNTLQGPVSFKDVAVDFTQEEWRQLDPDEKIAYGDVMLENYSHLVSVGYDYHQAKHHHGVEVKEVEQGEEPWIMEGEFPCQHSPEPAKAIKPIDRKSVHQICSGPVVLSLSTAVKELVENSLDAGATNIDLKLKDYGVDLIEVSDNGCGVEEENFEGLISFSSETSHM
B2: PMS134: dominant negative human PMS2 truncated at codon 134; N-terminal 133 amino acids (SEQ ID NO: 21) (protein, listed as Homo sapiens)
chain: MKQLPAATVRLLSSSQIITSVVSVVKELIENSLDAGATSVDVKLENYGFDKIEVRDNGEGIKAVDAPVMAMKYYTSKINSHEDLENLTTYGFRGEALGSICCIAEVLITTRTAADNFSTQYVLDGSGHILSQK

Assays:
Assay type in all cases: cell-based
[1] = test system: T7-PMS134 BL21 cells; experiment: EMS toxicity, cell viability by colony formation
Protocol: (§1) T7-PMS134 cells and empty vector control cells were grown with IPTG for 48 hours and then diluted 1:50 in LB plus IPTG and increasing amounts of ethyl methane sulfonate (EMS) from 0, 1, 10, 50, 100, and 200 μM. 10 μL aliquots of culture (diluted in 300 μl LB) were plated out on LB agar plus ampicillin plates and grown overnight at 37 C. The next day plates were analyzed for cell viability as determined by colony formation. […] The 200 μM treatment was toxic for both lines.

[2] = test system: empty vector control cells
Protocol: as §1

[3] = test system: BL21 cells; experiment: Kanamycin-resistance (hypermutability) assay in BL21; details: for KAN resistant cells: after 24 hr IPTG-induction; for KAN resistant clones: non-IPTG-induced conditions
Protocol: However, upon addition of the inducer IPTG, the cells express high-levels of T7 polymerase due to the IPTG-inducible element that drives expression of the polymerase that is resident within the genome of the BL21 cells (30). The BL21 cells are chloramphenicol resistant due to the plasmid that expresses lysozyme within the cell. To introduce the pT7-hPMS 134 or the pT7-hPMSR3 genes into BL21 cells, the cells were made competent by incubating the cells in ice cold 50 mM CaCl2 for 20 minutes, followed by concentrating the cells and adding super-coiled plasmid DNA as describe (Maniatis, T. et. al. Cold Spring Harbor Laboratory Press, Third Edition, 2001). Ampicillin resistant BL21 were selected on LB-agar plates [[…], 1.5% bactoagar, pH 7.0 (Difco)] plates containing 25 μg/ml chloramphenicol and 100 μg/ml ampicillin. The next day, bacterial colonies were picked and analyzed for vectors containing an intact pTACPMS134 or pTAC empty vector by restriction endonuclease digestion and sequence analysis.
Kanamycin-resistant assays using BL21 cells expressing the V5-tagged or untagged PMS134 or PMSR3 polypeptides were carried out as described above. BL21 bacterial cells that harbor the empty vector, pT7-PMS134 or pT7-PMSR3 were grown overnight in LB supplemented with 100 μg/ml ampicillin. The overnight cultures were diluted 1:100 into fresh ampicillin containing medium and grown for 2.5 hours at 37° C. with continuous shaking. When the cells reached an optical density (OD) of 0.6, measured at 600 nm, IPTG was added to each culture to a final concentration of 0.5 mM. Cells were incubated for 24, and 48 hours; at those time points cells were removed for SDS-PAGE analysis and plating (see above). BL21/pT7 (empty vector), BL21/pT7-PMS134, and BL21/pT7-R3 cells were plated onto LB plates, LB plates that contained 100 ug/ml ampicillin, and plates that contain 50 ug/ml Kanamycin. The equivalent of 1×10^7 cells/plate were spread onto the plates. BL21 cells that harbor the empty vector are capable of growth on LB plates as well as LB plates that contain 100 ug/ml ampicillin; that is as expected since the pT7 expression vector renders the cells ampicillin resistant. The vector only control is not capable of growth on Kanamycin.

[4] = test system: kanamycin resistant pT7-PMS134 and pT7-PMSR3 colonies; experiment: Genetic stability of kanamycin resistance (revertants)
Protocol: As described in EXAMPLE 2 and 3, manipulation of the MMR pathway in microbes results in alterations within the host genome and the ability to select for a novel output traits. It is important that the mutations introduced as a result of defective MMR is genetically stable and passed on to daughter cells once a desired output pathway is established. To determine the genetic stability of mutations introduced into the microbial genome the following experiment was performed. Five independent colonies from pT7-PMS134 and pT7-PMSR3 that are kanamycin resistance were grown overnight from an isolated colony in 5 ml of LB. Next, 1 μL of the overnight culture from these cultures were inoculated into another 5 mL of LB and grown overnight to saturation. Under these growth conditions the microbial cells have divided over 20 generations. Therefore, if the new output trait generated by alteration of MMR is unstable, the cells should “revert” back from kanamycin resistance to kanamycin sensitivity. Cells were plated onto LB plates and incubated overnight at 37° C. Next, the colonies (about 1,000/plate) were replica plated to LB, LB^amp100, and LB^kan50 plates and incubated at 37° C. overnight. […] Extended culturing of cells and replica plating found no reversions of KAN resistance in cultures grown in the absence of IPTG, which produce no PMS134 as determined by western blot (data not shown).

Molecule	colony number ([1]; 1 uM EMS) [colonies]	colony number ([1]; 10 uM EMS) [colonies]	colony number (in words) ([1]; 50 μM EMS)	reduction in colony number ([1]; 100 μM EMS) [fold]	toxicity (in words) ([1]; 200 μM EMS)	colony number ([2]; 1 uM EMS) [colonies]	colony number ([2]; 10 uM EMS) [colonies]	number of control cells ([2]; 50 μM EMS)	number of control cells ([2]; 100 μM EMS)	toxicity (in words) ([2]; 200 μM EMS)	KAN resistant cells [3]	KAN resistant clones [3]	revertants of KAN resistance ([4]; continually grown in IPTG, out of 1200)	loss of KAN resistant clones ([4]; grown in the absence of IPTG)
CCOS(C)(=O)=O [EMS, ethyl methane sulfonate]	> 1000	> 1000	No difference	3	toxic	> 1000	> 1000	30	0	toxic	–	–	–	–
B1	–	–	–	–	–	–	–	–	–	–	significant number	failed to produce any KAN resistant clones	–	–
B2	–	–	–	–	–	–	–	–	–	–	significant number	failed to produce any KAN resistant clones	5	No loss
